Experimental data published in US20190374554A1, “USE OF OXYGENATED CHOLESTEROL SULFATES (OCS) TO TREAT INFLAMMATORY SKIN DISEASE AND SKIN LESIONS” (Virginia Commonwealth University, priority 2016, published 2019).
“And” between values parts separate entries of the source, which are not always exact repeats. Identical values can stand only once.

Key:
Beagle dogs = experiment: Two-week SC injection study in dogs; format: in vivo
Procedure: In a separate study, Beagle dogs (n=4/sex/dose group) received daily SC injections for 2 weeks. The solution that was tested included 30 mg/mL of 25HC3 S sodium salt in vehicle (250 mg/mL hydroxypropyl-β-cyclodextrin in 10 mM sodium phosphate buffer). Dose levels of 0 (vehicle), 3, 10 and 30 mg/kg of 25HC3S were administered in dose volumes of 1.0, 0.1, 0.33 and 1.0 mL/kg. Following 14 days of dose administration, all dogs were euthanized and necropsied.

[1] = Infusion compatibility: 25HC3S diluted in 0.9% sodium chloride infusion bag and eluted through infusion sets (potency, osmolality, pH, appearance); format: physicochemical
Procedure: A physical and chemical compatibility study was conducted at a 30 mg, 48 mg and 300 mg 25HC3S dose in 5% dextrose and 0.9% sodium chloride infusion bags. Descriptions of the two kinds of infusion sets tested with 25HC3S product diluted in 5% dextrose and 0.9% sodium chloride are listed in Table 15. The tubing in catalog number 2H8480 infusion set was composed of polyvinylchloride (PVC), while the tubing in catalog number 2C8858 was polyethylene lined except for a short pump segment (approximately 12 inches) which was composed of PVC.
25HC3S for Injection and Vehicle for 25HC3S for Injection, that had been stored at 2-8° C. for approximately 16 months, were used for the compatibility study. After constitution, 30 mg (1.0 mL of constituted product), 48 mg (1.6 mL of constituted product) or 300 mg (10 mL of constituted product) were added to 100 mL infusion bags of 5% dextrose and 0.9% sodium chloride, mixed thoroughly, and stored for 24 hours at room temperature and at 2-8° C. […] Taking into consideration the overfill per infusion bag and the additional volume introduced by adding the constituted 25HC3S product to each bag, the expected concentrations of 25HC3S were 0.28 mg/mL, 0.44 mg/mL, and 2.56 mg/mL in the infusion bags. Two kinds of infusion sets were then attached to the drug containing infusion bags, and the entire contents were eluted through the infusion sets at approximately 50 mL/hour at room temperature. Samples were collected from the 25HC3S prepared infusion bags at T=0 and at 24 hours, and from the total eluent passed through the infusion sets, and tested for 25HC3S concentration using HPLC. Solution visual appearance, osmolality (using method USP<785>), and pH (using method USP<791>) were also measured on the collected samples.

[2] = 0.9% sodium chloride bag, approx. 0.28 mg/mL 25HC3S
[3] = 0.9% sodium chloride bag, approx. 0.44 mg/mL 25HC3S
[4] = 0.9% sodium chloride bag, approx. 2.56 mg/mL 25HC3S
[5] = 0.9% sodium chloride, approx. 0.28 mg/mL, bag 24 h at 2-8° C., Baxter 2C8858
[6] = 0.9% sodium chloride, approx. 0.28 mg/mL, bag 24 h at 2-8° C., Baxter 2H8480
[7] = 0.9% sodium chloride, approx. 0.28 mg/mL, bag 24 h at 25° C., Baxter 2C8858
[8] = 0.9% sodium chloride, approx. 0.28 mg/mL, bag 24 h at 25° C., Baxter 2H8480
[9] = 0.9% sodium chloride, approx. 0.44 mg/mL, bag 24 h at 2-8° C., Baxter 2C8858
[10] = 0.9% sodium chloride, approx. 0.44 mg/mL, bag 24 h at 2-8° C., Baxter 2H8480
[11] = 0.9% sodium chloride, approx. 0.44 mg/mL, bag 24 h at 25° C., Baxter 2C8858
[12] = 0.9% sodium chloride, approx. 0.44 mg/mL, bag 24 h at 25° C., Baxter 2H8480
[13] = 0.9% sodium chloride, approx. 2.56 mg/mL, bag 24 h at 2-8° C., Baxter 2C8858
[14] = 0.9% sodium chloride, approx. 2.56 mg/mL, bag 24 h at 2-8° C., Baxter 2H8480
[15] = 0.9% sodium chloride, approx. 2.56 mg/mL, bag 24 h at 25° C., Baxter 2C8858
[16] = 0.9% sodium chloride, approx. 2.56 mg/mL, bag 24 h at 25° C., Baxter 2H8480
[17] = sodium chloride, approximately 0.28 mg/mL 25HC3S
[18] = sodium chloride, approximately 0.44 mg/mL 25HC3S
[19] = sodium chloride, approximately 2.56 mg/mL 25HC3S

Compound: C[C@H](CCCC(C)(C)O)[C@H]1CC[C@H]2[C@@H]3CC=C4C[C@@H](OS(=O)(=O)[O-])CC[C@]4(C)[C@H]3CC[C@]12C.[Na+] [Formulation 25HC3S, 5-cholesten-3, 25-diol, 3-sulfate]
- swelling at the site of injection (Beagle dogs; daily SC 2 weeks, compared to vehicle only (FIG. 1C)): markedly decreased
- fibroplasia, hemorrhage, inflammation and necrosis in injection sites: incidence and severity (Beagle dogs; daily SC 3, 10, 30 mg/kg, 2 weeks (FIG. 1B)): generally higher in vehicle controls compared to drug-treated dogs
- 24 Hours at 2-8° C. Concentration [1, 2]: 0.275 mg/mL
- 24 Hours at 2-8° C. Osmolality [1, 2]: 276 mmol/kg
- 24 Hours at 2-8° C. pH [1, 2]: 5.87 and 5.99
- 24 Hours at 25° C. Concentration [1, 2]: 0.272 mg/mL and 0.274 mg/mL
- 24 Hours at 25° C. Osmolality [1, 2]: 275 mmol/kg and 277 mmol/kg
- 24 Hours at 25° C. pH [1, 2]: 5.93 and 5.92
- T = 0 Conc. [1, 2]: 0.273 mg/mL and 0.274 mg/mL and 0.275 mg/mL
- T = 0 Osmolality [1, 2]: 278 mmol/kg and 277 mmol/kg
- T = 0 pH [1, 2]: 6.39 and 6.43 and 6.45 and 6.40
- 24 Hours at 2-8° C. % Remaining Compared to T = 0 [1, 3]: (100.0%)
- 24 Hours at 2-8° C. Concentration [1, 3]: 0.434 mg/mL and 0.425 mg/mL
- 24 Hours at 2-8° C. Osmolality [1, 3]: 281 mmol/kg
- 24 Hours at 2-8° C. pH [1, 3]: 7.43 and 7.19
- 24 Hours at 25° C. % Remaining Compared to T = 0 [1, 3]: (100.0%)
- 24 Hours at 25° C. Concentration [1, 3]: 0.434 mg/mL and 0.424 mg/mL
- 24 Hours at 25° C. Osmolality [1, 3]: 280 mmol/kg
- 24 Hours at 25° C. pH [1, 3]: 7.33 and 7.41
- T = 0 Conc. [1, 3]: 0.434 mg/mL and 0.424 mg/mL and 0.425 mg/mL
- T = 0 Osmolality [1, 3]: 277 mmol/kg and 279 mmol/kg and 284 mmol/kg and 280 mmol/kg
- T = 0 pH [1, 3]: 7.30 and 7.43 and 7.21 and 7.44
- 24 Hours at 2-8° C. Concentration [1, 4]: 2.510 mg/mL and 2.520 mg/mL
- 24 Hours at 2-8° C. Osmolality [1, 4]: 283 mmol/kg
- 24 Hours at 2-8° C. pH [1, 4]: 5.93 and 5.96
- 24 Hours at 25° C. Concentration [1, 4]: 2.500 mg/mL and 2.525 mg/mL
- 24 Hours at 25° C. Osmolality [1, 4]: 282 mmol/kg
- 24 Hours at 25° C. pH [1, 4]: 6.01 and 5.86
- T = 0 Conc. [1, 4]: 2.450 mg/mL and 2.530 mg/mL and 2.525 mg/mL
- T = 0 Osmolality [1, 4]: 282 mmol/kg and 281 mmol/kg
- T = 0 pH [1, 4]: 6.20 and 6.10 and 6.07 and 6.11
- After Storage in Infusion Bag and Collection from Infusion Set % Remaining Compared to T = 0 [1, 5]: (100.0%)
- After Storage in Infusion Bag and Collection from Infusion Set Concentration [1, 5]: 0.275 mg/mL
- After Storage in Infusion Bag and Collection from Infusion Set Osmolality [1, 5]: 276 mmol/kg
- After Storage in Infusion Bag and Collection from Infusion Set pH [1, 5]: 5.78
- After Storage in Infusion Bag and Collection from Infusion Set % Remaining Compared to T = 0 [1, 6]: (100.4%)
- After Storage in Infusion Bag and Collection from Infusion Set Concentration [1, 6]: 0.275 mg/mL
- After Storage in Infusion Bag and Collection from Infusion Set Osmolality [1, 6]: 277 mmol/kg
- After Storage in Infusion Bag and Collection from Infusion Set pH [1, 6]: 5.81
- After Storage in Infusion Bag and Collection from Infusion Set % Remaining Compared to T = 0 [1, 7]: (100.0%)
- After Storage in Infusion Bag and Collection from Infusion Set Concentration [1, 7]: 0.274 mg/mL
- After Storage in Infusion Bag and Collection from Infusion Set Osmolality [1, 7]: 276 mmol/kg
- After Storage in Infusion Bag and Collection from Infusion Set pH [1, 7]: 5.83
- After Storage in Infusion Bag and Collection from Infusion Set % Remaining Compared to T = 0 [1, 8]: (99.6%)
- After Storage in Infusion Bag and Collection from Infusion Set Concentration [1, 8]: 0.272 mg/mL
- After Storage in Infusion Bag and Collection from Infusion Set Osmolality [1, 8]: 276 mmol/kg
- After Storage in Infusion Bag and Collection from Infusion Set pH [1, 8]: 5.78
- After Storage in Infusion Bag and Collection from Infusion Set % Remaining Compared to T = 0 [1, 9]: (100.2%)
- After Storage in Infusion Bag and Collection from Infusion Set Concentration [1, 9]: 0.426 mg/mL
- After Storage in Infusion Bag and Collection from Infusion Set Osmolality [1, 9]: 281 mmol/kg
- After Storage in Infusion Bag and Collection from Infusion Set pH [1, 9]: 7.16
- After Storage in Infusion Bag and Collection from Infusion Set % Remaining Compared to T = 0 [1, 10]: (100.0%)
- After Storage in Infusion Bag and Collection from Infusion Set Concentration [1, 10]: 0.434 mg/mL
- After Storage in Infusion Bag and Collection from Infusion Set Osmolality [1, 10]: 282 mmol/kg
- After Storage in Infusion Bag and Collection from Infusion Set pH [1, 10]: 7.13
- After Storage in Infusion Bag and Collection from Infusion Set % Remaining Compared to T = 0 [1, 11]: (100.0%)
- After Storage in Infusion Bag and Collection from Infusion Set Concentration [1, 11]: 0.424 mg/mL
- After Storage in Infusion Bag and Collection from Infusion Set Osmolality [1, 11]: 288 mmol/kg
- After Storage in Infusion Bag and Collection from Infusion Set pH [1, 11]: 7.20
- After Storage in Infusion Bag and Collection from Infusion Set % Remaining Compared to T = 0 [1, 12]: (99.8%)
- After Storage in Infusion Bag and Collection from Infusion Set Concentration [1, 12]: 0.433 mg/mL
- After Storage in Infusion Bag and Collection from Infusion Set Osmolality [1, 12]: 286 mmol/kg
- After Storage in Infusion Bag and Collection from Infusion Set pH [1, 12]: 7.09
- After Storage in Infusion Bag and Collection from Infusion Set % Remaining Compared to T = 0 [1, 13]: (99.8%)
- After Storage in Infusion Bag and Collection from Infusion Set Concentration [1, 13]: 2.520 mg/mL
- After Storage in Infusion Bag and Collection from Infusion Set Osmolality [1, 13]: 283 mmol/kg
- After Storage in Infusion Bag and Collection from Infusion Set pH [1, 13]: 5.70
- After Storage in Infusion Bag and Collection from Infusion Set % Remaining Compared to T = 0 [1, 14]: (100.0%)
- After Storage in Infusion Bag and Collection from Infusion Set Concentration [1, 14]: 2.530 mg/mL
- After Storage in Infusion Bag and Collection from Infusion Set Osmolality [1, 14]: 283 mmol/kg
- After Storage in Infusion Bag and Collection from Infusion Set pH [1, 14]: 5.72
- After Storage in Infusion Bag and Collection from Infusion Set % Remaining Compared to T = 0 [1, 15]: (99.6%)
- After Storage in Infusion Bag and Collection from Infusion Set Concentration [1, 15]: 2.520 mg/mL
- After Storage in Infusion Bag and Collection from Infusion Set Osmolality [1, 15]: 279 mmol/kg
- After Storage in Infusion Bag and Collection from Infusion Set pH [1, 15]: 5.83
- After Storage in Infusion Bag and Collection from Infusion Set % Remaining Compared to T = 0 [1, 16]: (100.4%)
- After Storage in Infusion Bag and Collection from Infusion Set Concentration [1, 16]: 2.460 mg/mL
- After Storage in Infusion Bag and Collection from Infusion Set Osmolality [1, 16]: 283 mmol/kg
- After Storage in Infusion Bag and Collection from Infusion Set pH [1, 16]: 5.81
- deviation of 25HC3S concentrations from the initial T=0 time point ([1]; 0.9% sodium chloride, after 24 hours at room temperature and at 2-8° C., and after elution through infusion sets): ≤ 2.0%
- osmolality trend ([1]; sodium chloride drug containing solutions): no consistent trends over time in the infusion bag or after elution through the infusion sets
- solution visual appearance ([1]; sodium chloride, all three concentrations, after 24 hours in bags and after elution): remained as clear and colorless solutions
- decrease of pH over 24 hours in the infusion bags [1, 17]: ~0.5 pH unit
- pH change after elution through the infusion sets [1, 17]: decrease by approximately a tenth of a pH
- pH change after elution through the infusion sets [1, 18]: decrease by a few tenths of a pH
- pH trend over time in the infusion bags [1, 18]: no consistent trends over time in the infusion bags
- pH change after elution through the infusion sets [1, 19]: drop by a few tenths of a pH
- pH change over time in the infusion bags [1, 19]: slight decrease by a tenth of a pH
